Test results reported in US4429127A, “Quinoline carboxylic acid derivative” (Kyorin Pharmaceutical Co., Ltd., priority 1981, dated 1984).
Converted amounts (≈) assume the structure as drawn.

How the values were obtained:
Acute toxicity in mice = format: in vivo; conditions: for LD50 at 168 h: mouse, in vivo, male mice, 7 days observation
From the text: Acute toxicity of the compound (I) was examined in mice (ICR strain, 7 weeks old). Observation period was 7 days after a single oral and intravenous administration.

[1] = Tissue levels after a single oral administration in mice (microbiological assay); format: in vivo; conditions: mouse; for concentration at 0.5 h / concentration at 1 h / concentration at 2 h / concentration at 4 h / concentration at 6 h: 50 mg/kg oral
Protocol: (§1) Tissue levels of the compound (I) after a single oral administration of 50 mg/kg in mice and rats
(§2) Tissue levels of the compound (I) were determined by micro-biological assay which employed the thin layer cup method with Bacillus subtilis ATCC6633 as the test organism. Serum and tissue levels of the compound (I) were calculated with the standard curve prepared in normal serum of the test animal species and M/15 phosphate buffer (pH 7.5), respectively.

[2] = tested on: gram-positive and gram-negative bacteria; assay: In vitro antibacterial activity against gram-positive and gram-negative bacteria (in words); format: cell-based; conditions: versus nalidixic acid and pipemidic acid
Protocol: (§3) The minimum inhibitory concentration (MIC) of the compound (I) was determined by an agar dilution technique (the standard method of Japan Society of Chemotherapy) against standard strains of gram-positive and gram-negative bacteria.

[3] = tested on: Staphylococcus aureus Smith; assay: MIC against the infecting strain (Table 2); format: cell-based; conditions: Staphylococcus aureus Smith; read-out: MIC
Protocol: as §3

E. coli ML4707 [4] = assay: MIC against the infecting strain (Table 2); format: cell-based; conditions: Escherichia coli; E. coli ML4707; read-out: MIC
Protocol: as §3

[5] = Tissue levels after a single oral administration, mice and rats together; format: in vivo; conditions: single oral 50 mg/kg
Protocol: as §1, §2

P. morganii IID602 = assay: In vitro antibacterial activity (MIC, agar dilution); format: cell-based; conditions: Morganella morganii, inoculum 10^8 cells/ml
Protocol: as §3
(§4) Inoculum size: 10^8 cells/ml

S. pneumoniae IID552 = assay: as above; format: cell-based; conditions: Streptococcus pneumoniae; S. pneumoniae IID552; inoculum 10^8 cells/ml; read-out: MIC
Protocol: as §3, §4

Proteus vulgaris IFO3167 = assay: as above; format: cell-based; conditions: Proteus vulgaris IFO3167; inoculum 10^8 cells/ml; read-out: MIC
Protocol: as §3, §4

P. aeruginosa IFO12689 = assay: as above; format: cell-based; conditions: Pseudomonas aeruginosa; P. aeruginosa IFO12689; inoculum 10^8 cells/ml; read-out: MIC
Protocol: as §3, §4

[6] = tested on: Acinetobacter enitratus IID876; assay: as above; format: cell-based; conditions: inoculum 10^8 cells/ml
Protocol: as §3, §4

Shigella sonnei IID969 = assay: as above; format: cell-based; conditions: inoculum 10^8 cells/ml
Protocol: as §3, §4

P. mirabilis IID994 = assay: as above; format: cell-based; conditions: Proteus mirabilis, inoculum 10^8 cells/ml
Protocol: as §3, §4

[7] = tested on: Bacillus subtilis PCI 219; assay: as above; format: cell-based; conditions: PCI219; Bacillus subtilis PCI 219; inoculum 10^8 cells/ml; read-out: MIC
Protocol: as §3, §4

[8] = tested on: Streptococcus pyogenes IID692; assay: as above; format: cell-based; conditions: Streptococcus pyogenes IID692; inoculum 10^8 cells/ml; read-out: MIC
Protocol: as §3, §4

[9] = tested on: S. aureus IID670 (Terajima); assay: as above; format: cell-based; conditions: Staphylococcus aureus; S. aureus IID670 (Terajima); inoculum 10^8 cells/ml; read-out: MIC
Protocol: as §3, §4

[10] = tested on: Klebsiella pneumoniae IFO3512; assay: as above; format: cell-based; conditions: Klebsiella pneumoniae IFO3512; inoculum 10^8 cells/ml; read-out: MIC
Protocol: as §3, §4

[11] = Metabolism when administered to animals; format: in vivo
[12] = Tissue levels after a single oral administration in rats (microbiological assay); format: in vivo; conditions: rat; for concentration at 0.5 h / concentration at 1 h / concentration at 2 h / concentration at 4 h / concentration at 6 h: 50 mg/kg oral
Protocol: as §1, §2

gram-positive bacteria = assay: In vitro antibacterial activity against gram-positive bacteria (in words); format: cell-based
Protocol: as §3

[13] = tested on: Staphylococcus aureus Smith; assay: In vivo antibacterial activity, systemic infection in mice; design: species or system mice (male, ICR)
Protocol: (§5) The in vivo antibacterial activity of the compound (I) was determined in systemic infection in mice. The systemic infections were produced in male mice ICR (body weight, 19±2 g) by inoculating intraperitoneally with Staphylococcus aureus Smith and E. coli ML4707. The compounds were administered orally in divided doses at 0 and 4 hrs. after infection. The therapeutic effect of drugs was judged from the number of mice surviving after 7 days of observation. A comparison of in vivo antibacterial activity was made on the basis of the […] effective dose (ED50) calculated by the method of Litchfield and Wilcoxon.

E. coli ML4707 [14] = assay: as above; design: species or system mice (male, ICR); conditions: Escherichia coli, ML4707, 168 h; mice, oral at 0 and 4 hrs. after infection; challenge 1.2 × 10^7 cells/animal in saline; 7 days survival; read-out: ED50
Protocol: as §5

[15] = kidney, read-out: Kidney concentration
[16] = liver, read-out: Liver concentration
[17] = lung, read-out: Lung concentration
[18] = serum, read-out: Serum concentration

CCn1cc(C(=O)O)c(=O)c2cc(F)c(N3CCN(Cc4ccc(N)cc4)CC3)c(F)c21 [compound (I), 7-[4-(p-aminobenzyl)-1-piperazinyl]-1-ethyl-6,8-difluoro-1,4-dihydro-4-oxoquinoline-3-carboxylic acid]
Acute toxicity, in words (Acute toxicity in mice; mice, single oral and intravenous administration): low toxicity
LD50 at 168 h (Acute toxicity in mice; iv): 250 to 300 mg/kg
LD50 at 168 h (Acute toxicity in mice; po): > 4000 mg/kg
concentration at 0.5 h [1, 15]: 13000 ng/mL
concentration at 1 h [1, 15]: 13000 ng/mL
concentration at 2 h [1, 15]: 7800 ng/mL
concentration at 4 h [1, 15]: 4600 ng/mL
concentration at 6 h [1, 15]: 4600 ng/mL
concentration at 0.5 h [1, 16]: 22500 ng/mL
concentration at 1 h [1, 16]: 17500 ng/mL
concentration at 2 h [1, 16]: 12000 ng/mL
concentration at 4 h [1, 16]: 9000 ng/mL
concentration at 6 h [1, 16]: 5800 ng/mL
concentration at 0.5 h [1, 17]: 12800 ng/mL
concentration at 1 h [1, 17]: 9500 ng/mL
concentration at 2 h [1, 17]: 5500 ng/mL
concentration at 4 h [1, 17]: 4300 ng/mL
concentration at 6 h [1, 17]: 2800 ng/mL
concentration at 0.5 h [1, 18]: 8600 ng/mL
concentration at 1 h [1, 18]: 6500 ng/mL
concentration at 2 h [1, 18]: 5000 ng/mL
concentration at 4 h [1, 18]: 2700 ng/mL
concentration at 6 h [1, 18]: 1800 ng/mL
Cmax ([1]; serum, mice, single oral 50 mg/kg, read-out: Peak serum level): 8600 ng/mL
Antibacterial activity against gram-positive and gram-negative bacteria, in words [2]: more active than nalidixic acid and pipemidic acid
MIC [3]: 0.05 µg/mL (≈ 0.113 µM)
MIC (E. coli ML4707 [4]): 0.39 µg/mL (≈ 0.881 µM)
Level in lung, liver and kidney relative to serum, in words ([5]; both species): higher than those in serum
Transferability in tissues, in words ([5]; mice and rats): very excellent
Tmax ([5]; serum, mice and rats, read-out: Time to peak serum level): 30 to 60 min
MIC (P. morganii IID602): 1.56 µg/mL (≈ 3.53 µM)
MIC (S. pneumoniae IID552): 0.39 µg/mL (≈ 0.881 µM)
MIC (Proteus vulgaris IFO3167): 1.56 µg/mL (≈ 3.53 µM)
MIC (P. aeruginosa IFO12689): 25 µg/mL (≈ 56.5 µM)
MIC [6]: 0.78 µg/mL (≈ 1.76 µM)
MIC (Shigella sonnei IID969): 0.39 µg/mL (≈ 0.881 µM)
MIC (P. mirabilis IID994): 1.56 µg/mL (≈ 3.53 µM)
MIC [7]: 0.1 µg/mL (≈ 0.226 µM)
MIC [8]: 0.78 µg/mL (≈ 1.76 µM)
MIC [9]: 0.2 µg/mL (≈ 0.452 µM)
MIC [10]: 0.1 µg/mL (≈ 0.226 µM)
Metabolism, in words [11]: metabolized in part to 1-ethyl-6,8-difluoro-1,4-dihydro-4-oxo-7-(1-piperazinyl)quinoline-3-carboxylic acid
concentration at 0.5 h [12, 15]: 6600 ng/mL
concentration at 1 h [12, 15]: 6800 ng/mL
concentration at 2 h [12, 15]: 2700 ng/mL
concentration at 4 h [12, 15]: 1000 ng/mL
concentration at 6 h [12, 15]: 300 ng/mL
concentration at 0.5 h [12, 16]: 14000 ng/mL
concentration at 1 h [12, 16]: 15400 ng/mL
concentration at 2 h [12, 16]: 6200 ng/mL
concentration at 4 h [12, 16]: 2200 ng/mL
concentration at 6 h [12, 16]: 800 ng/mL
concentration at 0.5 h [12, 17]: 6000 ng/mL
concentration at 1 h [12, 17]: 8600 ng/mL
concentration at 2 h [12, 17]: 2100 ng/mL
concentration at 4 h [12, 17]: 600 ng/mL
concentration at 0.5 h [12, 18]: 4800 ng/mL
concentration at 1 h [12, 18]: 5300 ng/mL
concentration at 2 h [12, 18]: 1200 ng/mL
concentration at 4 h [12, 18]: 200 ng/mL
concentration at 6 h [12, 18]: 200 ng/mL
Cmax ([12]; serum, rats, single oral 50 mg/kg, read-out: Peak serum level): 5300 ng/mL
Antibacterial activity against gram-positive bacteria containing Streptococcus spp., in words (gram-positive bacteria): more potent against gram-positive bacteria containing Streptococcus spp.
Potency superior to nalidixic acid (in vivo) ([13]; S. aureus Smith, versus nalidixic acid): 172 times
In vivo antibacterial activity, in words ([13]; S. aureus Smith, versus nalidixic acid and pipemidic acid): significantly more effective than that of nalidixic acid and pipemidic acid
Potency superior to pipemidic acid (in vivo) ([13]; S. aureus Smith, versus pipemidic acid): 62 times
ED50 ([13]; Staphylococcus aureus, 168 h, mice, oral at 0 and 4 hrs. after infection, challenge 2.4 × 10^5 cells/animal in BHI containing mucin, 7 days survival, read-out: ED50): 3.7 mg/kg
ED50 (E. coli ML4707 [14]): 13.8 mg/kg
